Reference: patent publication US12161647B2, “Treating hearing loss” (Massachusetts Eye and Ear Infirmary, priority 2012, dated 2024)

Tested on: organ of Corti explants from Pou4f3-Cre; Mos-iCsp3 double transgenic mice
Test: Organ of Corti explants after dimerizer-induced hair cell ablation
Assay type: cell-based, mouse
Source text: For the experiments using inner ear spheres, C57BL/6 (Jackson Labs) or Math1-nGFP reporter mouse (19) (a gift from Jane Johnson, University of Texas) of both sexes were used. To create organ of Corti explants with ablated hair cells, Mos-iCsp3 mice (20) were crossed with Pou4f3-Cre mice (6) (a gift from Douglas Vetter, Tufts University). For all in vivo experiments, we used 4-week-old Cre reporter line, mT/mG (Jackson Labs), crossed to a Sox2-CreER mouse (47) (a gift from Konrad Hochedlinger, Mass General Hospital). After genotyping, double transgenic animals were used for lineage tracing. We used young adult wild-type littermates of the mT/mG; Sox2-CreER mice to prevent strain effects in the response to noise, which are known to vary depending on background (22, 48). Mice were genotyped by PCR. […]
For explants, the organs of Corti were fixed for 15 min with 4% paraformaldehyde in PBS. […] Primary antibodies were detected with secondary antibodies conjugated with Alexa 488 and 647 (Molecular Probes). The samples were stained with rhodamine phalloidin (Invitrogen) for 15 min and viewed by confocal fluorescence microscopy (TCS SP5, Leica).
Cell counting for spheres was performed with MetaMorph software. The cell number was determined from DAPI- or Hoechst-positive nuclei. […] For explants, inner hair cells, outer hair cells, and supporting cells in the outer hair cell region were counted on cochlear whole mounts. […] High-power images of the full-length cochlea or cochlear explant cultures were assembled and analyzed in PhotoShop CS4 (Adobe). ImageJ software (NIH) was used to measure the total length of cochlear whole mounts and the length of individual counted segments. The total number of inner hair cells, outer hair cells, and supporting cells in the outer hair cell region was counted in each of four cochlear segments of 1200-1400 μm (apical, mid-apical, mid-basal, and basal). Density (cells per 100 μm) was then calculated for each segment. […] The number of Sox2-lineage-positive cells identified by GFP was counted by the same method. […]

## C[C@H](NC(=O)[C@@H](O)c1cc(F)cc(F)c1)C(=O)N[C@@H]1C(=O)N(C)c2ccccc2-c2ccccc21 [LY411575, N-2((2S)-2-(3,5-difluorophenyl)-2-hydroxyethanoyl)-N1-((7S)-5-methyl-6-oxo-6,7-dihydro-5H-dibenzo[b,d]azepin-7-yl)-l-alaninamide]
Any group
  number of inner hair cells: no significant differences
Hair cell-ablated explants, cultured 3 d, p<0.05
  number of myosin VIIa-positive (hair) cells in the outer hair cell region: increased
mid-apex and mid-base of the cochlea, p<0.05
  number of Sox2-positive (supporting) cells: decrease
